# Where “and” joins values, the source holds several entries; their conditions need not be identical. Identical values can stand only once. Like-named read-outs stand apart in the source and are kept apart here. Marks after values point to notes of the source that are not given here.
# Tests used:
# [1] = In vivo PK, IV dose, plasma; set-up: species or system Rat (SD); details: for Plasma concentration, mean / Plasma concentration, individual animal: IV 1 mg/kg
# Text: (§1) Table 20 provides results of in vitro and in vivo pharmacokinetics performed for each of the represented compounds.
# (§2) Tables 4 and 5 depict the summary of rat plasma sample concentrations after administration of ADG I-204. FIG. 6 provides a summary of rat plasma and brain concentrations.
# [2] = test system: H3K9ac; experiment: Western blot, differentiated CAD cell lysates, H3K9ac levels; assay type: cell-based; details: differentiated CAD cells, DMSO = 100.00%
# Text: as §1
# [3] = In vivo PK, oral gavage, plasma; set-up: species or system Rat (SD)
# Text: as §1, §2
# [4] = Protein binding via Rapid Equilibrium Dialysis - plasma; assay type: in vitro ADME; details: Rat (SD) plasma, 2 μM
# Text: as §1
# [5] = Microsomal stability assay (half-life), human; assay type: in vitro ADME; details: Human microsomes, read-out: Microsomal stability T1/2
# Text: as §1
# [6] = In vivo PK, IV dose, Terminal - brain (brain availability); set-up: species or system Rat (SD); details: for Brain concentration, mean / Brain concentration, individual animal: IV 1 mg/kg
# Experimental: Table 3 and FIG. 5 depict the brain availability of ADG I-204, ADG I-205, ADG I-206, and ADG I-207 after IV administration of 1 mg/kg dose.
# [7] = Microsomal stability assay (half-life), rat; assay type: in vitro ADME; details: Rat (SD) microsomes, read-out: Microsomal stability T1/2
# Text: as §1
# [8] = Microsomal stability assay (half-life), mouse; assay type: in vitro ADME; details: Mouse (CD1) microsomes, read-out: Microsomal stability T1/2
# Text: as §1
# [9] = In vivo PK, oral gavage, plasma; set-up: species or system Rat (SD); details: Rat, PO 5 mg/kg, BQL limit 1.00 ng/mL, listed as ADG I-206, 5 mg/kg
# [10] = Turbidity-based aqueous solubility; assay type: physicochemical; details: aqueous solution (composition not given), kinetic from dmso stock, read-out: highest soluble concentration
# Text: as §1
smiles,measurement,setting,value
"CNC(=O)Nc1ccc2nc(-c3cccs3)c(-c3cccs3)nc2c1 [ADG-206, 1-(2,3-di(thiophen-2-yl)quinoxalin-6-yl)-3-methylurea]","Plasma concentration, mean","[1]; Rat (SD), 8 hr, terminal, listed as ADG I-206, 1 mg/kg",5 ng/mL
same,"Plasma concentration, mean","[1]; Rat (SD), 24 hr, terminal, BQL limit 1.00 ng/mL (ADG I-205: 2.00 ng/mL)",BQL
same,"Plasma concentration, individual animal","[1]; Rat, 0.0830 hr, terminal, third animal received only 70% of the test article, listed as ADG I-206, 1 mg/kg",1500 ng/mL and 1160 ng/mL and 610*** ng/mL
same,"Plasma concentration, individual animal","[1]; Rat, 0.500 hr, not terminal (animals 4, 5 and 6), listed as ADG I-206, 1 mg/kg",7310** ng/mL and 527 ng/mL and 507 ng/mL
same,"Plasma concentration, individual animal","[1]; Rat, 1.00 hr, terminal, listed as ADG I-206, 1 mg/kg",177 ng/mL and 142 ng/mL
same,"Plasma concentration, individual animal","[1]; Rat, 4.00 hr, terminal, BQL limit 1.00 ng/mL (ADG I-205: 2.00 ng/mL), listed as ADG I-206, 1 mg/kg",4.19 ng/mL and 1.81 ng/mL
same,"Plasma concentration, individual animal","[1]; Rat, 8.00 hr, terminal, BQL limit 1.00 ng/mL (ADG I-205: 2.00 ng/mL), listed as ADG I-206, 1 mg/kg",BQL and 1.44 ng/mL and 8.52 ng/mL
same,"Plasma concentration, individual animal","[1]; Rat, 24.0 hr, terminal, BQL limit 1.00 ng/mL (ADG I-205: 2.00 ng/mL)",BQL
same,concentration at 0.083 h,"[1]; SD, rat, plasma, iv, 1 mg/kg, Rat (SD), 0.083 hr, terminal, read-out: Plasma concentration, mean",1090 ng/mL
same,concentration at 0.5 h,"[1]; SD, rat, plasma, iv, 1 mg/kg, Rat (SD), 0.500 hr, not a terminal time point (animals 4, 5 and 6)",2780 ng/mL
same,concentration at 1 h,"[1]; SD, rat, plasma, iv, 1 mg/kg, Rat (SD), 1 hr, terminal, read-out: Plasma concentration, mean",165 ng/mL
same,concentration at 4 h,"[1]; SD, rat, plasma, iv, 1 mg/kg, Rat (SD), 4 hr, terminal, read-out: Plasma concentration, mean",3 ng/mL
same,concentration at 8 h,"[1]; SD, rat, plasma, iv, 1 mg/kg, Rat (SD), 8 hr, terminal, read-out: Plasma concentration, mean",4.98 ng/mL
same,concentration at 1 h,"[1]; SD, rat, plasma, iv, 1 mg/kg, Rat, 1.00 hr, terminal, read-out: Plasma concentration, individual animal",176 ng/mL
same,H3K9ac levels normalized to H3 and DMSO control,[2]; 1 uM,46.94%
same,H3K9ac levels normalized to H3 and DMSO control,[2]; 5 uM,35.39%
same,H3K9ac levels normalized to H3 and DMSO control,[2]; 10 uM,19.49%
same,H3K9ac levels normalized to H3 and DMSO control,[2]; 20 uM,8.45%
same,H3K9ac levels normalized to H3 and DMSO control,[2]; 50 uM,5.83%
same,H3K9ac levels normalized to H3 and DMSO control,[2]; 100 uM,1.24%
same,"Plasma concentration, mean","[3]; Rat (SD), PO 5 mg/kg, 24 hr, BQL = below quantitation limit (1.00 ng/mL)",BQL
same,"Plasma concentration, individual animal","[3]; Rat, PO 5 mg/kg, 24.0 hr, BQL limit 1.00 ng/mL",BQL
same,concentration at 0.25 h,"[3]; SD, rat, plasma, po, 5 mg/kg, Rat (SD), 0.25 hr, BQL = below quantitation limit (1.00 ng/mL), read-out: Plasma concentration, mean",1.47 ng/mL
same,concentration at 0.5 h,"[3]; SD, rat, plasma, po, 5 mg/kg, Rat (SD), 0.5 hr, BQL = below quantitation limit (1.00 ng/mL), read-out: Plasma concentration, mean",2.32 ng/mL
same,concentration at 1 h,"[3]; SD, rat, plasma, po, 5 mg/kg, Rat (SD), 1 hr, BQL = below quantitation limit (1.00 ng/mL), read-out: Plasma concentration, mean",7.14 ng/mL
same,concentration at 4 h,"[3]; SD, rat, plasma, po, 5 mg/kg, Rat (SD), 4 hr, BQL = below quantitation limit (1.00 ng/mL)",12.8 ng/mL
same,concentration at 8 h,"[3]; SD, rat, plasma, po, 5 mg/kg, Rat (SD), 8 hr, BQL = below quantitation limit (1.00 ng/mL), read-out: Plasma concentration, mean",12.2 ng/mL
same,concentration at 0.25 h,"[3]; SD, rat, plasma, po, 5 mg/kg, Rat, 0.250 hr, BQL limit 1.00 ng/mL, read-out: Plasma concentration, individual animal",1.47 ng/mL
same,concentration at 0.5 h,"[3]; SD, rat, plasma, po, 5 mg/kg, Rat, 0.500 hr, BQL limit 1.00 ng/mL, read-out: Plasma concentration, individual animal",2.86 ng/mL
same,concentration at 1 h,"[3]; SD, rat, plasma, po, 5 mg/kg, Rat, 1.00 hr, BQL limit 1.00 ng/mL, read-out: Plasma concentration, individual animal",5.47 ng/mL
same,concentration at 8 h,"[3]; SD, rat, plasma, po, 5 mg/kg, Rat, 8.00 hr, BQL limit 1.00 ng/mL, read-out: Plasma concentration, individual animal",15.6 ng/mL
same,"Protein binding, plasma: % Protein free",[4],0.6565 % Protein free
same,half-life at 2 μM,[5],43.3 min
same,"Brain concentration, mean","[6]; Rat (SD), 1 hr, listed as ADG I-206, 1 mg/kg",67 ng/g
same,"Brain concentration, mean","[6]; Rat (SD), 4 hr, BQL limit 10.0 ng/g (204, 206), 20.0 ng/g (205, 207)",BQL
same,"Brain concentration, mean","[6]; Rat (SD), 8 hr, BQL limit 10.0 ng/g (204, 206), 20.0 ng/g (205, 207)",BQL
same,"Brain concentration, mean","[6]; Rat (SD), 24 hr, BQL limit 10.0 ng/g (204, 206), 20.0 ng/g (205, 207)",BQL
same,"Brain concentration, individual animal","[6]; Rat, 0.0830 hr, third animal received only 70% of the test article, listed as ADG I-206, 1 mg/kg",1080 ng/g and 1050 ng/g and 455*** ng/g
same,"Brain concentration, individual animal","[6]; Rat, 1.00 hr, listed as ADG I-206, 1 mg/kg",57.6 ng/g and 74.3 ng/g
same,"Brain concentration, individual animal","[6]; Rat, 4.00 hr, BQL limit 10.0 ng/g (204, 206), 20.0 ng/g (205, 207)",BQL
same,"Brain concentration, individual animal","[6]; Rat, 8.00 hr, BQL limit 10.0 ng/g (204, 206), 20.0 ng/g (205, 207)",BQL
same,"Brain concentration, individual animal","[6]; Rat, 24.0 hr, BQL limit 10.0 ng/g (204, 206), 20.0 ng/g (205, 207)",BQL
same,concentration at 0.083 h,"[6]; SD, rat, brain, iv, 1 mg/kg, Rat (SD), 0.083 hr",862 ng/g
same,concentration at 1 h,"[6]; SD, rat, brain, iv, 1 mg/kg, Rat (SD), 1 hr, read-out: Brain concentration, mean",66.9 ng/g
same,concentration at 1 h,"[6]; SD, rat, brain, iv, 1 mg/kg, Rat, 1.00 hr, read-out: Brain concentration, individual animal",68.8 ng/g
same,half-life at 2 μM,[7],6.36 min
same,half-life at 2 μM,[8],4.39 min
same,"Plasma concentration, individual animal",[9]; 0.250 hr,BQL
same,"Plasma concentration, individual animal",[9]; 0.500 hr,2.16 ng/mL and 1.93 ng/mL
same,"Plasma concentration, individual animal",[9]; 1.00 hr,9.00 ng/mL and 6.94 ng/mL
same,"Plasma concentration, individual animal",[9]; 4.00 hr,17.2 ng/mL and 8.32 ng/mL
same,"Plasma concentration, individual animal",[9]; 8.00 hr,8.89 ng/mL
same,solubility,[10],5 µM

# — patent publication US20220117958A1, “COMPOSITIONS AND METHODS FOR INHIBITING ACSS2” (THE TRUSTEES OF THE UNIVERSITY OF PENNSYLVANIA, priority 2018, published 2022)
